{"source": "patent US20250325662A1", "about": "“METHODS OF TREATING AND PREDICTING NON-RESPONSE TO ANTI-TNF TREATMENT IN SUBJECTS WITH GASTROINTESTINAL TRACT DISEASES” (BT Bidco, Inc., priority 2020, published 2025)", "tested_on": "IL-6, GM-CSF, IL-15, IL-2, IL-12, IL-13, TNF-α, and INF-γ", "note": "Structures can show the parent of a compound that is named as a salt.", "data": [{"smiles": "C[C@@H]1CCN(C(=O)CC#N)C[C@@H]1N(C)c1ncnc2[nH]ccc12", "note": "[tofacitinib citrate]", "values": [{"measurement": "IL-6 expression in plasma", "setting": "PO or IC administration, 1 h and 3 h post-treatment", "result": "inhibition of IL-6 expression"}, {"measurement": "inhibition of IL-6 expression in colon tissue", "setting": "all IC treated groups and high dose PO group (45 mg/kg)", "result": "sustained through 24 h post-dose"}, {"measurement": "IL-6 inhibition in colon tissue", "setting": "low dose PO group (15 mg/kg), by 12 h post-dose", "result": "Recovery from IL-6 inhibition"}]}]}
